{
  "source": "patent US4048320A",
  "about": "“Penicillins” (Beecham Group Limited, priority 1975, dated 1977)",
  "format_in_all_cases": "cell-based",
  "key": {"Enterobacter aerogenes": {"test_system": "Enterobacter aerogenes", "assay": "MIC by serial dilution in nutrient agar", "conditions": "Klebsiella aerogenes"}, "Streptococcus faecalis": {"test_system": "Streptococcus faecalis", "assay": "MIC by serial dilution in nutrient agar"}, "E. cloacae": {"test_system": "E. cloacae", "assay": "MIC by serial dilution in nutrient agar", "conditions": "Enterobacter cloacae"}, "Citrobacter freundii": {"test_system": "Citrobacter freundii", "assay": "MIC by serial dilution in nutrient agar"}, "Proteus mirabilis": {"test_system": "Proteus mirabilis", "assay": "MIC by serial dilution in nutrient agar"}, "P. morganii": {"test_system": "P. morganii", "assay": "MIC by serial dilution in nutrient agar"}, "P. vulgaris": {"test_system": "P. vulgaris", "assay": "MIC by serial dilution in nutrient agar", "conditions": "Proteus vulgaris"}, "E. coli": {"test_system": "E. coli", "assay": "MIC by serial dilution in nutrient agar", "conditions": "Escherichia coli"}, "Serratia marcescens": {"test_system": "Serratia marcescens", "assay": "MIC by serial dilution in nutrient agar"}, "P. rettgeri": {"test_system": "P. rettgeri", "assay": "MIC by serial dilution in nutrient agar", "conditions": "Providencia rettgeri"}, "Klebsiella aerogenes": {"test_system": "Klebsiella aerogenes", "assay": "MIC by serial dilution in nutrient agar"}, "[1]": {"test_system": "a range of Gram-negative bacteria and Strep. Faecalis", "assay": "Microbiological evaluation, comparison of MIC values of the two compounds (Table I)", "conditions": "from MIC values of Table I"}, "[2]": {"conditions": "Enterobacter aerogenes strain T730"}, "[3]": {"conditions": "Enterobacter aerogenes strain T755"}, "[4]": {"conditions": "Enterococcus faecalis, Streptococcus faecalis strain Weaver, read-out: MIC"}, "[5]": {"conditions": "Streptococcus faecalis strain A"}, "[6]": {"conditions": "Streptococcus faecalis strain Page"}, "[7]": {"conditions": "Citrobacter freundii strain T745"}, "[8]": {"conditions": "Citrobacter freundii strain W18"}, "[9]": {"conditions": "Proteus mirabilis strain H-WF, read-out: MIC"}, "[10]": {"conditions": "Morganella morganii, P. morganii strain DU10, read-out: MIC"}, "[11]": {"conditions": "E. coli strain JT1, read-out: MIC"}, "[12]": {"conditions": "E. coli strain JT39R+, read-out: MIC"}, "[13]": {"conditions": "E. coli strain JT56R+, read-out: MIC"}, "[14]": {"conditions": "E. coli strain JT68R+, read-out: MIC"}, "[15]": {"conditions": "E. coli strain JT103, read-out: MIC"}, "[16]": {"conditions": "E. coli strain JT147, read-out: MIC"}, "[17]": {"conditions": "E. coli strain JT454C+, read-out: MIC"}, "[18]": {"conditions": "E. coli strain JT460C+, read-out: MIC"}, "[19]": {"conditions": "Serratia marcescens strain US30"}, "[20]": {"conditions": "Serratia marcescens strain US39R+"}, "[21]": {"conditions": "Klebsiella aerogenes strain B195R+"}, "[22]": {"conditions": "Klebsiella aerogenes strain E70"}, "[23]": {"conditions": "Klebsiella aerogenes strain I229"}, "[24]": {"conditions": "Klebsiella aerogenes strain I281"}, "[25]": {"conditions": "Klebsiella aerogenes strain T312"}},
  "note": "Read-outs that look alike come from different tables or passages of the source.",
  "data": [
    {"smiles": "COC1(NC(=O)C(C(=O)O)c2ccccc2)C(=O)N2C(C(=O)O)C(C)(C)SC21", "note": "(stereo not drawn) [6-methoxy carbenicillin, 6α-methoxy-6β-(2-carboxyphenylacetamido)penicillanic acid, reference compound]", "values": [
      {"measurement": "MIC", "setting": "Enterobacter aerogenes; [2]", "value": 5, "unit": "µg/mL"},
      {"measurement": "MIC", "setting": "Enterobacter aerogenes; [3]", "value": 5, "unit": "µg/mL"},
      {"measurement": "MIC", "setting": "Streptococcus faecalis; [4]", "value": "> 500", "unit": "µg/mL"},
      {"measurement": "MIC", "setting": "Streptococcus faecalis; [5]", "value": "> 500", "unit": "µg/mL"},
      {"measurement": "MIC", "setting": "Streptococcus faecalis; [6]", "value": "> 500", "unit": "µg/mL"},
      {"measurement": "MIC", "setting": "E. cloacae; E. cloacae strain T629", "value": 5, "unit": "µg/mL"},
      {"measurement": "MIC", "setting": "E. cloacae; E. cloacae strain T763", "value": 5, "unit": "µg/mL"},
      {"measurement": "MIC", "setting": "Citrobacter freundii; [7]", "value": 5, "unit": "µg/mL"},
      {"measurement": "MIC", "setting": "Citrobacter freundii; [8]", "value": 12.5, "unit": "µg/mL"},
      {"measurement": "MIC", "setting": "Proteus mirabilis; Proteus mirabilis strain BS66", "value": 5.0, "unit": "µg/mL"},
      {"measurement": "MIC", "setting": "Proteus mirabilis; Proteus mirabilis strain CT13", "value": 5.0, "unit": "µg/mL"},
      {"measurement": "MIC", "setting": "Proteus mirabilis; [9]", "value": 5, "unit": "µg/mL"},
      {"measurement": "MIC", "setting": "Proteus mirabilis; Proteus mirabilis strain T251", "value": 5.0, "unit": "µg/mL"},
      {"measurement": "MIC", "setting": "P. morganii; [10]", "value": 5, "unit": "µg/mL"},
      {"measurement": "MIC", "setting": "P. morganii; P. morganii strain DU718", "value": 5.0, "unit": "µg/mL"},
      {"measurement": "MIC", "setting": "P. vulgaris; P. vulgaris strain C", "value": "< 0.5", "unit": "µg/mL"},
      {"measurement": "MIC", "setting": "P. vulgaris; P. vulgaris strain I", "value": 5, "unit": "µg/mL"},
      {"measurement": "MIC", "setting": "P. vulgaris; P. vulgaris strain K", "value": 12.5, "unit": "µg/mL"},
      {"measurement": "MIC", "setting": "E. coli; [11]", "value": 5, "unit": "µg/mL"},
      {"measurement": "MIC", "setting": "E. coli; E. coli strain JT2OR+", "value": 5, "unit": "µg/mL"},
      {"measurement": "MIC", "setting": "E. coli; [12]", "value": 12.5, "unit": "µg/mL"},
      {"measurement": "MIC", "setting": "E. coli; [13]", "value": 12.5, "unit": "µg/mL"},
      {"measurement": "MIC", "setting": "E. coli; [14]", "value": 12.5, "unit": "µg/mL"},
      {"measurement": "MIC", "setting": "E. coli; [15]", "value": 5, "unit": "µg/mL"},
      {"measurement": "MIC", "setting": "E. coli; [16]", "value": 12.5, "unit": "µg/mL"},
      {"measurement": "MIC", "setting": "E. coli; [17]", "value": 5, "unit": "µg/mL"},
      {"measurement": "MIC", "setting": "E. coli; [18]", "value": 12.5, "unit": "µg/mL"},
      {"measurement": "MIC", "setting": "Serratia marcescens; Serratia marcescens strain US1", "value": 5, "unit": "µg/mL"},
      {"measurement": "MIC", "setting": "Serratia marcescens; [19]", "value": 12.5, "unit": "µg/mL"},
      {"measurement": "MIC", "setting": "Serratia marcescens; [20]", "value": 5, "unit": "µg/mL"},
      {"measurement": "MIC", "setting": "P. rettgeri; P. rettgeri strain B", "value": 5, "unit": "µg/mL"},
      {"measurement": "MIC", "setting": "P. rettgeri; P. rettgeri strain I", "value": 5, "unit": "µg/mL"},
      {"measurement": "MIC", "setting": "P. rettgeri; P. rettgeri strain R110", "value": 5, "unit": "µg/mL"},
      {"measurement": "MIC", "setting": "Klebsiella aerogenes; [21]", "value": 25, "unit": "µg/mL"},
      {"measurement": "MIC", "setting": "Klebsiella aerogenes; [22]", "value": 5, "unit": "µg/mL"},
      {"measurement": "MIC", "setting": "Klebsiella aerogenes; [23]", "value": 12.5, "unit": "µg/mL"},
      {"measurement": "MIC", "setting": "Klebsiella aerogenes; [24]", "value": 12.5, "unit": "µg/mL"},
      {"measurement": "MIC", "setting": "Klebsiella aerogenes; [25]", "value": 12.5, "unit": "µg/mL"}
    ]},
    {"smiles": "COC1(NC(=O)C(C(=O)O)c2ccsc2)C(=O)N2C(C(=O)O)C(C)(C)SC21", "note": "[6-methoxy ticarcillin, 6-β-(D,L-2-Carboxy-2-thien-3'-ylacetamido)-6-α-methoxypenicillanic acid]", "values": [
      {"measurement": "MIC", "setting": "Enterobacter aerogenes; [2]", "value": 1.2, "unit": "µg/mL"},
      {"measurement": "MIC", "setting": "Enterobacter aerogenes; [3]", "value": 2.5, "unit": "µg/mL"},
      {"measurement": "MIC", "setting": "Streptococcus faecalis; [4]", "value": "> 500", "unit": "µg/mL"},
      {"measurement": "MIC", "setting": "Streptococcus faecalis; [5]", "value": "> 500", "unit": "µg/mL"},
      {"measurement": "MIC", "setting": "Streptococcus faecalis; [6]", "value": "> 500", "unit": "µg/mL"},
      {"measurement": "MIC", "setting": "E. cloacae; E. cloacae strain T629", "value": 2.5, "unit": "µg/mL"},
      {"measurement": "MIC", "setting": "E. cloacae; E. cloacae strain T763", "value": 1.2, "unit": "µg/mL"},
      {"measurement": "MIC", "setting": "Citrobacter freundii; [7]", "value": 2.5, "unit": "µg/mL"},
      {"measurement": "MIC", "setting": "Citrobacter freundii; [8]", "value": 2.5, "unit": "µg/mL"},
      {"measurement": "activity relative to the corresponding phenyl compound (6-methoxy carbenicillin)", "setting": "[1]", "value": "consistently two-fold more active"},
      {"measurement": "MIC", "setting": "Proteus mirabilis; Proteus mirabilis strain BS66", "value": 2.5, "unit": "µg/mL"},
      {"measurement": "MIC", "setting": "Proteus mirabilis; Proteus mirabilis strain CT13", "value": 2.5, "unit": "µg/mL"},
      {"measurement": "MIC", "setting": "Proteus mirabilis; [9]", "value": 2.5, "unit": "µg/mL"},
      {"measurement": "MIC", "setting": "Proteus mirabilis; Proteus mirabilis strain T251", "value": 2.5, "unit": "µg/mL"},
      {"measurement": "MIC", "setting": "P. morganii; [10]", "value": 2.5, "unit": "µg/mL"},
      {"measurement": "MIC", "setting": "P. morganii; P. morganii strain DU718", "value": 2.5, "unit": "µg/mL"},
      {"measurement": "MIC", "setting": "P. vulgaris; P. vulgaris strain C", "value": "< 0.5", "unit": "µg/mL"},
      {"measurement": "MIC", "setting": "P. vulgaris; P. vulgaris strain I", "value": 2.5, "unit": "µg/mL"},
      {"measurement": "MIC", "setting": "P. vulgaris; P. vulgaris strain K", "value": 5, "unit": "µg/mL"},
      {"measurement": "MIC", "setting": "E. coli; [11]", "value": 2.5, "unit": "µg/mL"},
      {"measurement": "MIC", "setting": "E. coli; E. coli strain JT2OR+", "value": 5, "unit": "µg/mL"},
      {"measurement": "MIC", "setting": "E. coli; [12]", "value": 5, "unit": "µg/mL"},
      {"measurement": "MIC", "setting": "E. coli; [13]", "value": 5, "unit": "µg/mL"},
      {"measurement": "MIC", "setting": "E. coli; [14]", "value": 5, "unit": "µg/mL"},
      {"measurement": "MIC", "setting": "E. coli; [15]", "value": 2.5, "unit": "µg/mL"},
      {"measurement": "MIC", "setting": "E. coli; [16]", "value": 5, "unit": "µg/mL"},
      {"measurement": "MIC", "setting": "E. coli; [17]", "value": 5, "unit": "µg/mL"},
      {"measurement": "MIC", "setting": "E. coli; [18]", "value": 5, "unit": "µg/mL"},
      {"measurement": "MIC", "setting": "Serratia marcescens; Serratia marcescens strain US1", "value": 2.5, "unit": "µg/mL"},
      {"measurement": "MIC", "setting": "Serratia marcescens; [19]", "value": 5, "unit": "µg/mL"},
      {"measurement": "MIC", "setting": "Serratia marcescens; [20]", "value": 2.5, "unit": "µg/mL"},
      {"measurement": "MIC", "setting": "P. rettgeri; P. rettgeri strain B", "value": 2.5, "unit": "µg/mL"},
      {"measurement": "MIC", "setting": "P. rettgeri; P. rettgeri strain I", "value": 5, "unit": "µg/mL"},
      {"measurement": "MIC", "setting": "P. rettgeri; P. rettgeri strain R110", "value": 2.5, "unit": "µg/mL"},
      {"measurement": "MIC", "setting": "Klebsiella aerogenes; [21]", "value": 5, "unit": "µg/mL"},
      {"measurement": "MIC", "setting": "Klebsiella aerogenes; [22]", "value": 2.5, "unit": "µg/mL"},
      {"measurement": "MIC", "setting": "Klebsiella aerogenes; [23]", "value": 5, "unit": "µg/mL"},
      {"measurement": "MIC", "setting": "Klebsiella aerogenes; [24]", "value": 5, "unit": "µg/mL"},
      {"measurement": "MIC", "setting": "Klebsiella aerogenes; [25]", "value": 5, "unit": "µg/mL"}
    ]}
  ]
}
